This passage reports IC50 results from patent publication EP4483954A1 (Masarykova Univerzita, priority 2023, dated 2025).

The IC50 is the midpoint of a concentration-inhibition curve.

Structures are written as SMILES.

The test addresses T1, Haspin (h) (Homo sapiens, UniProt Q8TF76).
T1 construct: purchased Eurofins (KinaseProfiler)
T1 sequence (Q8TF76 1-798): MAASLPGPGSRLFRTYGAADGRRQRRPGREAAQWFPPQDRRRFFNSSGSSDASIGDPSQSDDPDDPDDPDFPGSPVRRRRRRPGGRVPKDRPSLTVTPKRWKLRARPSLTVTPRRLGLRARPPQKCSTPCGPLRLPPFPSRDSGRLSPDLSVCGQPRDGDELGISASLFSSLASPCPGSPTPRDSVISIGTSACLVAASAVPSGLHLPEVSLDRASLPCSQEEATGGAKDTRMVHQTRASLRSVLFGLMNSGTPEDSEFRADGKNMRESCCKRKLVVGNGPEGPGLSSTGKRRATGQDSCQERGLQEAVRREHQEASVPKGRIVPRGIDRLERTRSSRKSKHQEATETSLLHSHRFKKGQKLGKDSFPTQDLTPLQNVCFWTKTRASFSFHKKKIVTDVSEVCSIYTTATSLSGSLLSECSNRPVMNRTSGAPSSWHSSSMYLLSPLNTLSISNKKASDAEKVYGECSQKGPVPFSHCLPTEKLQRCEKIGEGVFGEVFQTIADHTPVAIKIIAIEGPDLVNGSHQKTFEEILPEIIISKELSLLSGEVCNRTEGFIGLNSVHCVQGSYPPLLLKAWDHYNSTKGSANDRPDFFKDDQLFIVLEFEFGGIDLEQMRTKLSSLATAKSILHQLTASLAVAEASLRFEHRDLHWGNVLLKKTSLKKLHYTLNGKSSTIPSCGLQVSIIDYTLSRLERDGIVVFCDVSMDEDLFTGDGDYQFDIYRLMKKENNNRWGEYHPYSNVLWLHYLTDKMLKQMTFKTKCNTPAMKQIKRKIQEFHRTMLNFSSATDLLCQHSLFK
Kind of test: radiometric kinase assay (KinaseProfiler, Eurofins), Haspin. To be noted: in vitro radiometric kinase assay, tested at 1 nM to 10 000 nM, no pre-incubation; read-out: inhibitory activities (IC50 values) Haspin. The format is biochemical. As to the method:
The compounds were profiled in the radiometric assays (KinaseProfiler, Eurofins).
Briefly, kinases were diluted in the buffer shown below prior to addition to the reaction mix: • CDKL3, TAF1L: 20 mM Tris/HCl pH 8.5, 0.2 mM EDTA, 0.1% β-mercaptoethanol, 0.01% Brij-35, 5% glycerol, 1 mg/ml BSA; • Haspin: 15 mM MOPS, 0.75 mM EDTA, 0.0075% Brij-35, 3.75% Glycerol, 150 mM NaCl, 0.1% β-mercaptoethanol, 1 mg/mLBSA; • CDKL4, CLK2, PIM1, TRB2: […], 1 mM EDTA, 0.01% Brij-35, 5% Glycerol, 0.1% β-mercaptoethanol, 1 mg/mL BSA.
All compounds were prepared to 50x final assay concentration in 100% DMSO. This working stock of the compound was added to the assay well as the first component in the reaction, followed by the remaining components as detailed in the general assay protocols below. There was no pre-incubation step between the compound and the kinase prior to initiation of the reaction.
Haspin (h) was incubated with 8 mM MOPS pH 7.0, 0.2 mM EDTA, 500 µM RARTLSFAEPG (SEQ ID NO. 3), 10 mM magnesium acetate and γ-^33P-ATP (specific activity and concentration as required). The reaction was initiated by the addition of the Mg/ATP mix. After incubation for 40 minutes at room temperature, the reaction was stopped by the addition of phosphoric acid to a concentration of 0.5%. An aliquot of the reaction was then spotted onto a filter and washed four times for 4 minutes in 0.425% phosphoric acid and once in methanol prior to drying and scintillation counting.
Kinase activity data were expressed as the percent remaining kinase activity in tested samples compared to the vehicle (DMSO) reactions. The compounds were tested at the following concentrations: 1 nM, 3 nM, 10 nM, 30 nM, 100 nM, 300 nM, 1000 nM, 3000 nM, and 10 000 nM; IC50 values and curve fits were then obtained.
As to `c1cnc2c(-c3ccc4scc(-c5ccncc5)c4n3)cnn2c1` [Preparative Example 115, 5-(pyrazolo[1,5-a]pyrimidin-3-yl)-3-(pyridin-4-yl)thieno[3,2-b]pyridine], the IC50 lay within 500 to 3000 nM.
As for `c1cc(-c2csc3ccc(Nc4cn[nH]c4)nc23)ccn1` [Preparative Example 98, N-(1H-pyrazol-4-yl)-3-(pyridin-4-yl)thieno[3,2-b]pyridin-5-amine], the figure is 20 to 99 nM; as for `CCOC(=O)c1cn(C)nc1Nc1ccc2scc(-c3ccnc(NC(=O)OC(C)(C)C)c3)c2n1` [Preparative Example 126, Ethyl 3-((3-(2-((tert-butoxycarbonyl)amino)pyridin-4-yl)thieno[3,2-b]pyridin-5-yl)amino)-1-methyl-1H-pyrazole-4-carboxylate], 3000 to 10000 nM.
For `c1cc(-c2csc3ccc(OCC4CNCCO4)nc23)ccn1` (stereo not drawn) [Preparative Example 118, 2-(((3-(pyridin-4-yl)thieno[3,2-b]pyridin-5-yl)oxy)methyl)-morpholine] the value was 100 to 499 nM; for `CCn1ccc(-c2ccc3scc(-c4ccncc4)c3n2)n1` [Preparative Example 87, 5-(1-ethyl-1H-pyrazol-3-yl)-3-(pyridin-4-yl)thieno[3,2-b]pyridine], 500 to 3000 nM.
For `Cn1ncnc1-c1ccc2scc(-c3ccncc3)c2n1` [Preparative Example 96, 5-(1-methyl-1H-1,2,4-triazol-5-yl)-3-(pyridin-4-yl)thieno[3,2-b]pyridine] the value was 3000 to 10000 nM.
On to `c1cnc(-c2ccc3scc(-c4ccncc4)c3n2)nc1` [Preparative Example 112, 3-(pyridin-4-yl)-5-(pyrimidin-2-yl)thieno[3,2-b]pyridine], for which the IC50 lay in the range of 3000 to 10000 nM.
With `CC(C)(C)n1ccc(-c2ccc3scc(-c4ccncc4)c3n2)n1` [Preparative Example 80, 5-(1-(tert-butyl)-1H-pyrazol-3-yl)-3-(pyridin-4-yl)thieno[3,2-b]pyridine], the IC50 was in the range of 3000 to 10000 nM.
As for `Cn1ccc(Oc2ccc3scc(-c4ccncc4)c3n2)n1` [Preparative Example 110, 5-((1-methyl-1H-pyrazol-3-yl)oxy)-3-(pyridin-4-yl)thieno[3,2-b]pyridine], the figure is 100 to 499 nM; as for `Cn1cc(-c2ccc3scc(-c4ccnc(O)c4)c3n2)cn1` [Preparative Example 18, 4-(5-(1-methyl-1H-pyrazol-4-yl)thieno[3,2-b]-pyridin-3-yl)pyridin-2-ol], 100 to 499 nM; as for `c1cc(-c2ccc3scc(-c4ccc5ncnn5c4)c3n2)ccn1` [Preparative Example 132, 3-([1,2,4]triazolo[1,5-a]pyridin-6-yl)-5-(pyridin-4-yl)thieno[3,2-b]pyridine], 20 to 99 nM.
For `Cn1ccc(Nc2ccc3scc(-c4ccc5nncn5c4)c3n2)n1` [Preparative Example 135, 3-([1,2,4]triazolo[4,3-a]pyridin-6-yl)-N-(1-methyl-1H-pyrazol-3-yl)thieno[3,2-b]pyridin-5-amine] the value was 500 to 3000 nM; for `Cn1cc(-c2ccc3scc(-c4ccnc(NC(=O)OC(C)(C)C)c4)c3n2)cn1` [Preparative Example 24, tert-butyl (4-(5-(1-methyl-1H-pyrazol-4-yl)thieno[3,2-b]pyridin-3-yl)pyridin-2-yl)carbamate], 100 to 499 nM; for `c1cc(-c2csc3ccc(-c4ccns4)nc23)ccn1` [Preparative Example 92, 5-(isothiazol-5-yl)-3-(pyridin-4-yl)thieno[3,2-b]pyridine], 500 to 3000 nM.
Turning to `Cc1cc(-c2ccn(C)n2)nc2c(-c3ccncc3)csc12` [Preparative Example 158, 7-methyl-5-(1-methyl-1H-pyrazol-3-yl)-3-(pyridin-4-yl)thieno[3,2-b]pyridine], the IC50 is 100 to 499 nM.
For `c1cc(-c2csc3ccc(Nc4ccncn4)nc23)ccn1` [Preparative Example 114, 3-(pyridin-4-yl)-N-(pyrimidin-4-yl)thieno[3,2-b]pyridin-5-amine] the value was 500 to 3000 nM; for `CN(c1ccc2scc(-c3ccncc3)c2n1)c1ccn(C)n1` [Preparative Example 100, N-methyl-N-(1-methyl-1H-pyrazol-3-yl)-3-(pyridin-4-yl)thieno[3,2-b]pyridin-5-amine], 500 to 3000 nM; for `Cn1cc(-c2ccc3scc(-c4ccnc(CNC(=O)OC(C)(C)C)c4)c3n2)cn1`, 3000 to 10000 nM.
As for `CC(C)(C)OC(=O)N1CCO[C@H](COc2ccc3scc(-c4ccncc4)c3n2)C1` [Preparative Example 117, tert-butyl (S)-2-(((3-(pyridin-4-yl)thieno[3,2-b]pyridin-5-yl)oxy)-methyl)morpholine-4-carboxylate], the figure is 3000 to 10000 nM; as for `c1ccc(Cn2ccc(-c3ccc4scc(-c5ccncc5)c4n3)n2)cc1` [Preparative Example 89, 5-(1-benzyl-1H-pyrazol-3-yl)-3-(pyridin-4-yl)thieno[3,2-b]pyridine], 500 to 3000 nM; as for `Cn1ccc(-c2ccc3scc(-c4ccc5ncnn5c4)c3n2)n1` [Preparative Example 129, 3-([1,2,4]triazolo[1,5-a]pyridin-6-yl)-5-(1-methyl-1H-pyrazol-3-yl)thieno[3,2-b]pyridine], 100 to 499 nM.
Turning to `c1cnnc(Nc2ccc3scc(-c4ccncc4)c3n2)c1` [Preparative Example 113, N-(pyridazin-3-yl)-3-(pyridin-4-yl)thieno[3,2-b]pyridin-5-amine], the IC50 was in the range of 100 to 499 nM.
As for `Cn1cc(-c2ccc3scc(-c4ccc5n[nH]cc5c4)c3n2)cn1` [Preparative Example 51, 3-(2H-indazol-5-yl)-5-(1-methyl-1H-pyrazol-4-yl)thieno[3,2-b]-pyridine], the figure is 100 to 499 nM.
As for `c1cnc(-c2ccc3scc(-c4ccc5ncnn5c4)c3n2)nc1` [Preparative Example 130, 3-([1,2,4]triazolo[1,5-a]pyridin-6-yl)-5-(pyrimidin-2-yl)thieno[3,2-b]pyridine], the figure is 500 to 3000 nM.
For `Cn1nc(Nc2ccc3scc(-c4ccncc4)c3n2)cc1NC(=O)OC(C)(C)C` [Preparative Example 103, tert-butyl (1-methyl-3-((3-(pyridin-4-yl)thieno[3,2-b]pyridin-5-yl)-amino)-1H-pyrazol-5-yl)carbamate] the value was 3000 to 10000 nM; for `Cn1cc(-c2ccc3scc(-c4ccc(N5CCOCC5)nc4)c3n2)cn1` [Preparative Example 42, 4-(5-(5-(1-methyl-1H-pyrazol-4-yl)thieno[3,2-b]-pyridin-3-yl)pyridin-2-yl)morpholine], 500 to 3000 nM.
In the case of `CC(C)(C)OC(=O)n1cc(Nc2ccc3scc(-c4ccc5ncnn5c4)c3n2)cn1` [Preparative Example 133, tert-butyl 4-((3-([1,2,4]triazolo[1,5-a]pyridin-6-yl)thieno[3,2-b]pyridin-5-yl)amino)-1H-pyrazole-1-carboxylate], the IC50 is 3000 to 10000 nM.
As for `CC(C)(C)OC(=O)N1CCOC(COc2ccc3scc(-c4ccncc4)c3n2)C1` (stereo not drawn) [Preparative Example 116, tert-butyl 2-(((3-(pyridin-4-yl)thieno[3,2-b]pyridin-5-yl)oxy)-methyl)morpholine-4-carboxylate], the figure is 3000 to 10000 nM; as for `Cn1cc(-c2ccc3scc(-c4ccc(C#N)cc4)c3n2)cn1` [Preparative Example 4, 4-(5-(1-methyl-1H-pyrazol-4-yl)thieno[3.2-b]pyridin-3-yl)benzonitrile], 100 to 499 nM.
For `Cn1ccc(-c2ccc3scc(-c4ccns4)c3n2)n1` [Preparative Example 119, 3-(isothiazol-5-yl)-5-(1-methyl-1H-pyrazol-3-yl)thieno[3,2-b]pyridine] the value was 100 to 499 nM.
